Reference: patent publication US10335518B2, “Catheter locking formulation and method to prepare same” (priority 2013, dated 2019)
Read-outs that look alike come from different tables or passages of the source.

Assays:
[1] = cited from earlier work
[2] = no concentration stated

For COc1cc(Cc2cnc(N)nc2N)cc(OC)c1OC [Trimethoprim], which solubility ([1]; 95% Ethanol) is on record?
The solubility was 0.81 g/100 mL.

And the solubility ([1]; Absolute Ethanol)?
The solubility was 0.35 g/100 mL.

And the solubility ([1]; Acetone)?
The solubility was 0.35 g/100 mL.

And the solubility ([1]; Benzene)?
Its solubility is 0.002 g/100 mL.

What about the solubility ([1]; Benzyl Alcohol) of the same compound?
Its solubility is 7.29 g/100 mL.

And the solubility ([1]; Carbon Tetra-Chloride)?
Its solubility is 0.002 g/100 mL.

And the solubility ([1]; Choroform)?
Its solubility is 1.82 g/100 mL.

And the solubility ([1]; Diethyl Ether)?
The solubility was 0.00 g/100 mL.

What about the solubility ([1]; Dimethyl Acetamide) of the same compound?
Its solubility is 13.86 g/100 mL.

And the solubility ([1]; Methanol)?
Its solubility is 1.21 g/100 mL.

And the solubility ([1]; Petroleum Ether)?
The solubility was 0.02 g/100 mL.

And the solubility ([1]; Propylene Glycol)?
The solubility was 2.57 g/100 mL.

What about the solubility ([1]; Water) of the same compound?
The solubility was 0.04 g/100 mL.

And the “solubility in ethanol (qualitative)” value [2]?
The value was “only slightly soluble”.

And the “solubility in propylene glycol (qualitative)” value [2]?
Its value is “soluble”.

What about the “solubility in water (qualitative)” value [2] of the same compound?
The value was “almost completely insoluble”.
